Where “and” joins values, the source holds several entries; their conditions need not be identical. Equal values may be shown once.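 1) Cells in 96-well plates. 2) Compound, 48 h, 5 concentrations. 3) Linear interpolation between surrounding doses. 4) Unreached endpoint = highest concentration. Here, GI50 denotes the concentration required for 50% inhibition of growth. TGI is the concentration that stops growth completely.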
Tests used:
Assay in all cases: inhibition of tumour cell growth, NCI panel, 48 h
DMS 114 small cell lung = system: DMS 114 small cell lung
KM20L2 colon = system: KM20L2 colon
LXFL 529 NSCLC = system: LXFL 529 NSCLC
M19-MEL melanoma = system: M19-MEL melanoma
XF 498 CNS = system: XF 498 CNS
MDA-MB-231 breast = system: MDA-MB-231 breast
MDA-MB-435 = system: MDA-MB-435
NCI/ADR-RES ovarian = system: NCI/ADR-RES ovarian
BT-549 breast = system: BT-549 breast
DU-145 prostate = system: DU-145 prostate
HS 578T breast = system: HS 578T breast

| SMILES | TGI (DMS 114 small cell lung) | TGI (KM20L2 colon) | TGI (LXFL 529 NSCLC) | TGI (M19-MEL melanoma) | TGI (XF 498 CNS) | other results |
| --- | --- | --- | --- | --- | --- | --- |
| Nc1cccc(C(=O)/C=C/c2ccccc2O)c1 | > 100 µM | > 100 µM | > 100 µM | > 100 µM | > 100 µM | – |
| Cc1cccc(NC(=O)CSc2nnc(-c3ccc(N=Cc4ccc(Cl)cc4)cc3)o2)c1 | > 100 µM | > 100 µM | > 100 µM | > 100 µM | > 100 µM | – |
| Cc1cc2nc3c(C(OC4OC(CO)C(O)C(O)C4O)C(O)CO)nn(-c4ccc(F)cc4)c3nc2cc1C (stereo not given) | > 100 µM | > 100 µM | > 100 µM | > 100 µM | > 100 µM | – |
| C=C(/C=C/C=C(\CO)CCC=C(C)C)[C@H]1CCC2([C@H](CCCO)/C(=C(/C)C=O)CC[C@]2(C)O)[C@H]1O (stereo not given in full) | > 100 µM | > 100 µM | > 100 µM | > 100 µM | > 100 µM | – |
| O=C(CC/C(CC(=O)c1ccc(Cl)cc1)=N\O)Nc1cccc(Cl)c1 | > 100 µM | > 100 µM | > 100 µM | > 100 µM | > 100 µM | – |
| Cc1ccccc1NC(=O)C(=O)CC(=O)c1sc(-n2nc(-c3ccccc3)cc2-c2ccccc2)nc1C | > 100 µM | > 100 µM | > 100 µM | > 100 µM | – | – |
| O=C(Cn1ccnc1[N+](=O)[O-])NCc1ccc(F)cc1 | > 100 µM | > 100 µM | > 100 µM | > 100 µM | > 100 µM | – |
| COc1ccc(/C(C#N)=C2/O/C(=N/N)C(c3ccc(OC)c(OC)c3)C2=O)cc1OC (stereo not given) | – | > 100 µM | > 100 µM | > 100 µM | > 100 µM | – |
| COc1ccc(C2C(C(=O)O)=C(COC(C)=O)Oc3cc4c(cc32)OCO4)c(OC)c1 (stereo not given) | > 100 µM | > 100 µM | – | > 100 µM | > 100 µM | – |
| COC(=O)C1C(=O)NC2(C)CC1c1ccccc1O2 (stereo not given) | > 100 µM | – | > 100 µM | > 100 µM | > 100 µM | – |
| O=C(O)c1cc2ccc(Cl)cc2c(O)c1C1=CCCCC1 | 63.6 µM | > 100 µM | > 100 µM | > 100 µM | 51 µM | – |
| CCOC(=O)C(=O)Nc1nc2ccc(OC)cc2s1 | – | > 100 µM | > 100 µM | > 100 µM | – | – |
| O=C(Nc1c(Cl)cc([N+](=O)[O-])cc1Cl)C(=O)C(C(=O)c1ccncc1)C1OC(=O)c2ccccc21 (stereo not given) | > 100 µM | > 100 µM | > 100 µM | > 100 µM | > 100 µM | – |
| COc1cc2c(c(OC)c1OC)-c1ccc(SC)c(=O)cc1C(CC(=O)Oc1ccccc1F)C2 (stereo not given) | 0.0438 µM | 0.0252 µM | > 7.5 µM | > 7.5 µM | – | – |
| Cc1ccc(-n2cc(/C(N)=N/O)c3ccccc3c2=O)cc1 | > 100 µM | > 100 µM | > 100 µM | > 100 µM | > 100 µM | – |
| Cc1ccc(/C=C2\CCCC(C(NO)c3ccc(C)cc3)C2=NO)cc1 (stereo not given) | > 100 µM | 42.5 µM | > 100 µM | > 100 µM | > 100 µM | – |
| COc1cc2ccc(CC(=O)O)cc2cc1OC | > 100 µM | > 100 µM | > 100 µM | > 100 µM | – | – |
| CC1(C)O[C@@H](CCl)C[C@@H](C#N)O1 | > 100 µM | > 100 µM | – | > 100 µM | – | – |
| Nc1nc2c(ncn2C2OC(CO)C(O)C2O)c(=O)[nH]1 (stereo not given) | 214 µM | 214 µM | – | 206 µM | – | GI50 (MDA-MB-231 breast): > 100 µM; TGI (MDA-MB-231 breast): > 100 µM; GI50 (MDA-MB-435): > 100 µM; TGI (MDA-MB-435): > 100 µM; GI50 (NCI/ADR-RES ovarian): > 100 µM; TGI (NCI/ADR-RES ovarian): > 100 µM and 238 µM |
| CN(C)CCC(/C=C/c1ccccc1)=N\Nc1c(F)c(F)c(F)c(F)c1F | > 100 µM | – | > 100 µM | > 100 µM | – | – |
| CCOc1ccccc1NC(=O)C1=C(C)NC(C)=C(C(=O)Nc2ccccc2OCC)C1c1ccc2c(c1)OCO2 | > 100 µM | > 100 µM | > 100 µM | > 100 µM | 49.6 µM | – |
| Clc1ccc(/C=C/c2csnn2)cc1 | > 100 µM | > 100 µM | > 100 µM | > 100 µM | > 100 µM | – |
| Cc1c(C(=O)/C=C/c2ccc3c(c2)OCO3)[n+](=O)c2ccccc2n1[O-] | 48.8 µM | 48.3 µM | 61.9 µM | > 100 µM | 92.8 µM | – |
| CN(C)CC(=O)N1CCc2c([nH]c3ccccc23)C1c1cccnc1 (stereo not given) | > 100 µM | > 100 µM | > 100 µM | > 100 µM | > 100 µM | GI50 (BT-549 breast): 12.9 µM; TGI (BT-549 breast): 77.4 µM; GI50 (DU-145 prostate): > 100 µM; TGI (DU-145 prostate): > 100 µM; GI50 (HS 578T breast): 94.1 µM; TGI (HS 578T breast): > 100 µM; GI50 (MDA-MB-231 breast): 21.5 µM; TGI (MDA-MB-231 breast): 83.5 µM; GI50 (MDA-MB-435): > 100 µM; TGI (MDA-MB-435): > 100 µM; GI50 (NCI/ADR-RES ovarian): > 100 µM; TGI (NCI/ADR-RES ovarian): > 100 µM |
| O=C(NCCOC(=O)CCCCCCCCC(=O)OCCNC(=O)NC(=O)c1cn(Cc2ccccc2)c(=O)[nH]c1=O)NC(=O)c1cn(Cc2ccccc2)c(=O)[nH]c1=O | > 100 µM | > 100 µM | > 100 µM | > 100 µM | > 100 µM | – |
| NCC[PH+](c1ccccc1)c1ccccc1.NCC[PH+](c1ccccc1)c1ccccc1.[Cl-].[Pt+4] | – | – | – | – | – | GI50 (BT-549 breast): > 100 µM; TGI (BT-549 breast): > 100 µM; GI50 (DU-145 prostate): > 100 µM; TGI (DU-145 prostate): > 100 µM; GI50 (HS 578T breast): 99.6 µM; TGI (HS 578T breast): > 100 µM; GI50 (MDA-MB-231 breast): > 100 µM; TGI (MDA-MB-231 breast): > 100 µM; GI50 (MDA-MB-435): > 100 µM; TGI (MDA-MB-435): > 100 µM; GI50 (NCI/ADR-RES ovarian): > 100 µM; TGI (NCI/ADR-RES ovarian): > 100 µM |
| Clc1cc(Cl)cc(Nc2ccc3c(OCCCN4CCOCC4)cccc3n2)c1 | – | – | – | – | – | GI50 (BT-549 breast): 6.93 µM; TGI (BT-549 breast): 20 µM; GI50 (DU-145 prostate): 3.08 µM; TGI (DU-145 prostate): 9.67 µM; GI50 (HS 578T breast): 2.51 µM; TGI (HS 578T breast): 8.14 µM; GI50 (MDA-MB-231 breast): 1.8 µM; TGI (MDA-MB-231 breast): 3.94 µM; GI50 (MDA-MB-435): 1.8 µM; TGI (MDA-MB-435): 3.71 µM; GI50 (NCI/ADR-RES ovarian): 2.88 µM; TGI (NCI/ADR-RES ovarian): 9.29 µM |
| COc1ccc(-c2nn(-c3cccc(Cl)c3)cc2-c2c(C#N)c(=O)n3[nH]c(-c4ccc(C)o4)nc3c2C#N)cc1 | – | – | – | – | – | GI50 (BT-549 breast): 4.19 µM; TGI (BT-549 breast): 43.5 µM; GI50 (DU-145 prostate): 19.1 µM; TGI (DU-145 prostate): > 50 µM; GI50 (HS 578T breast): 2.95 µM; TGI (HS 578T breast): > 50 µM; GI50 (MDA-MB-231 breast): 4.7 µM; TGI (MDA-MB-231 breast): 36.9 µM; GI50 (MDA-MB-435): 4.44 µM; TGI (MDA-MB-435): 30.1 µM; GI50 (NCI/ADR-RES ovarian): > 50 µM; TGI (NCI/ADR-RES ovarian): > 50 µM |

— PubChem BioAssay (NCI)
